Where two headings read alike, the source gives them in different places.
How the values were obtained:
HCT-116 cells = experiment: HCT-116 cell proliferation assay; format: cell-based; conditions: Homo sapiens
[1] = target: T1, B-Raf kinase (SEQ ID NO: 1) (Homo sapiens, UniProt P15056); experiment: Biochemical assay for B-Raf (coupled pyruvate kinase/lactate dehydrogenase)
T1 construct: GST (N); purchased Sigma

MiaPaca-2 cells = experiment: MiaPaca-2 cell proliferation assay; format: cell-based; conditions: Homo sapiens, MIA PaCa-2
Pa16c cells = experiment: Pa16c cell proliferation assay; format: cell-based; conditions: 67 to 72 h incubation, resazurin; read-out: Pa16c (inhibition of cell proliferation, IC50)
HPAF-II cells = experiment: HPAF-II cell proliferation assay; format: cell-based; conditions: Homo sapiens
[2] = target: T2, C-Raf kinase (SEQ ID NO: 2) (Homo sapiens, UniProt P04049, Y340D/Y341D); experiment: Biochemical assay for C-Raf (coupled pyruvate kinase/lactate dehydrogenase)
T2 construct: C-Raf residues 306-end; Y340D, Y341D with N-; GST (N); purchased Sigma
T2 sequence (P04049 307-648 Y340D/Y341D): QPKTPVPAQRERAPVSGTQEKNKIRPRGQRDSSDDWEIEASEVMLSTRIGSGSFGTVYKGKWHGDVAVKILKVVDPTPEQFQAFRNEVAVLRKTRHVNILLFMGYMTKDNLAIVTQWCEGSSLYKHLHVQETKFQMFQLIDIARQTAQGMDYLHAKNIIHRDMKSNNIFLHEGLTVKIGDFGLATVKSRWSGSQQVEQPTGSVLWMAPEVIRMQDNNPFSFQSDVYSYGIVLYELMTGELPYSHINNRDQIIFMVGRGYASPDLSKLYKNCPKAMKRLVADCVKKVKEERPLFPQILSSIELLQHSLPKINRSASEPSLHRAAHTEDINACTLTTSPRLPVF

[3] = tested on: tubulin polymerization in HCT-116 cells; experiment: Cellular tubulin polymerization assay (HCT-116 cells); format: cell-based
Experimental: HCT-116 cells (catalog #CCL-247) are obtained from the American Type Culture Collect (ATCC, Manassas, VA). Briefly, cells are grown in McCoy's 5A supplemented with 10% characterized fetal bovine serum (Invitrogen, Carlsbad, CA) and 1% Penicillin/Streptomycin/L-Glutamine at 37° C., 5% CO2, and 95% humidity. Cells are expanded until reaching 70-95% confluency at which point they are sub-cultured or harvested for assay use. 450000 cells are added per well in 1500 μL complete growth medium in a tissue culture treated, 12-well plate. Plates are incubated for 18 to 24 h at 37° C., 5% CO2, and 95% humidity. At the end of the incubation, 2000 μL of base culture media is added to each well, followed by a serial dilution of compound. Plates are incubated for an additional 1 h at 37° C., 5% CO2, and 95% humidity. Lysates are generated by the addition of 100 μL Lysis and Microtubule Stabilization Buffer 1 (LMSO1, Cytoskeleton Inc, Denver, CO) supplemented with GTP (BST06, Cytoskeleton Inc), ATP (BSA04, Cytoskeleton Inc), and Protease Inhibitor Cocktail Stock (PIC02, Cytoskeleton Inc). Cells are scraped off wells using a rubber cell scraper and collected in a clean 96-well plate. Lysates are centrifuged at 1000× g, 37° C. for 10 min and supernatant fraction is placed into an additional 96-well plate. The remaining pellet fraction is reconstituted in 100 μL LMS01 buffer and sonicated for 10 min. Pellet and Supernatant fractions are probed for α-tubulin via western blot analysis on the Jess System or equivalent (Bio-techne, Minneapolis, MN). Data is analyzed using Prism software (Graphpad, San Diego, CA) to calculate IC50 values.

Porcine Brain Tubulin = Porcine Brain Tubulin (Sus scrofa, UniProt P02550+P02554); experiment: Biochemical tubulin polymerization assay; conditions: maximum velocity of polymerization, FIG. 1; read-out: IC50 of inhibition of tubulin polymerization, biochemical tubulin assay
Sequence of Porcine Brain Tubulin (P02554 whole entry): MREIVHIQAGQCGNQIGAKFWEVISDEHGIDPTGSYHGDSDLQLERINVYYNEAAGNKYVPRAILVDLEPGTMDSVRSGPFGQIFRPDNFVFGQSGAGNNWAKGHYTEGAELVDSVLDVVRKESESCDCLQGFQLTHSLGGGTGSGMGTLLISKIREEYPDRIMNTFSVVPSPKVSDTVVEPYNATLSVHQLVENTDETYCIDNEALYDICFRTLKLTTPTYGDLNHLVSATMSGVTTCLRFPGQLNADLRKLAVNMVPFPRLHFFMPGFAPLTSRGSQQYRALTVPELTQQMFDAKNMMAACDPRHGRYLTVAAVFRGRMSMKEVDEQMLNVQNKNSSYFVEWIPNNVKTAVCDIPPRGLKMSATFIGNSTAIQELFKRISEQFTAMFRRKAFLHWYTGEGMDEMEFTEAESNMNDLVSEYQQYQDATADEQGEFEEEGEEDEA
Sequence of Porcine Brain Tubulin (P02550 whole entry): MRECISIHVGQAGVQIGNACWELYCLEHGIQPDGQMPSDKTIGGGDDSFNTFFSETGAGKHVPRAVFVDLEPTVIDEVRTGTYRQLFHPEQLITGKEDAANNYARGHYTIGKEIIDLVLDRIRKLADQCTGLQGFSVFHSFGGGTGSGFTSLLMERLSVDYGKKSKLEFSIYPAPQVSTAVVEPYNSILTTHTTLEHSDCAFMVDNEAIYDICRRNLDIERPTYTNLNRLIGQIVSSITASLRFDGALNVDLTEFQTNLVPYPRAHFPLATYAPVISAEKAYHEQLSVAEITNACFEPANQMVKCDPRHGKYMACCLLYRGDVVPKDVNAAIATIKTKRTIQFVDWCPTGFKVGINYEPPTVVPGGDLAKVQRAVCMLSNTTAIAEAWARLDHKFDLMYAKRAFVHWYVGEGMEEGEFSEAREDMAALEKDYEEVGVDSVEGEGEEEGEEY

[4] = HCT-116, 67 to 72 h incubation, resazurin, read-out: HCT-116 (inhibition of cell proliferation, IC50)
[5] = Table 3, mutant KRAS colorectal cancer cell line, anti-proliferative, read-out: HCT-116
[6] = 1 mM ATP, read-out: BRAF (inhibition of biochemical activity, IC50)
[7] = 67-72 h incubation, resazurin, read-out: MiaPaca-2 (inhibition of cell proliferation, IC50)
[8] = Table 3, mutant KRAS pancreatic cancer cell line, anti-proliferative, read-out: MiaPaca-2
[9] = HPAF-II, 115 to 120 h incubation, resazurin, read-out: HPAF-II (inhibition of cell proliferation, IC50)
[10] = Table 3, mutant KRAS pancreatic cancer cell line, anti-proliferative, read-out: HPAF-II
[11] = 1 mM ATP, read-out: CRAF (inhibition of biochemical activity, IC50)
[12] = Table 3, HCT-116 cells, read-out: Tubulin Cellular

T1 sequence (P15056 416-766): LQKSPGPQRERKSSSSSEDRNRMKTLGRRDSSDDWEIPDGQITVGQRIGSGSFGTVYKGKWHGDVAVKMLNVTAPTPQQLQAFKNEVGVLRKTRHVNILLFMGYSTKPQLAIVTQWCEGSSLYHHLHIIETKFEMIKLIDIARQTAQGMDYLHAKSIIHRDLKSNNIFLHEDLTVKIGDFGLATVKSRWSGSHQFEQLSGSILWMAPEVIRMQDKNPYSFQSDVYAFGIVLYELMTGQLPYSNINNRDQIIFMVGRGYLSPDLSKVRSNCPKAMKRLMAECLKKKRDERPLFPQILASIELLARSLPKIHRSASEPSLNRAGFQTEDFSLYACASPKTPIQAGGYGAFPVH

SMILES	IC50 (HCT-116 cells; [4]) [nM]	IC50 (HCT-116 cells; [5]) [nM]	IC50 [1, 6] [nM]	IC50 ([1]; Table 3, read-out: BRAF) [nM]	IC50 (MiaPaca-2 cells; [7]) [nM]	IC50 (MiaPaca-2 cells; [8]) [nM]	IC50 (Pa16c cells) [nM]	IC50 (HPAF-II cells; [9]) [nM]	IC50 (HPAF-II cells; [10]) [nM]	IC50 [2, 11] [nM]	IC50 ([2]; Table 3, read-out: CRAF) [nM]	IC50 [3, 12] [nM]	IC50 ([3]; ratio of pellet to supernatant vs DMSO control, HCT-116, FIG. 2, read-out: IC50 of inhibition of tubulin polymerization, cellular tubulin assay) [nM]	IC50 (Porcine Brain Tubulin) [nM]
Cc1ccc(NC(=O)c2cc(C(F)(F)F)cnn2)cc1-c1cc(OCCO)nc(N2CCOCC2)c1 [Example 6]	< 100	< 100	< 100	< 100	< 100	< 100	< 100	< 100	< 100	< 100	< 100	< 100		
Cc1ccc(NC(=O)c2cc(C(C)C)cnn2)cc1-c1cc(N[C@H](C)CO)nc(N2CCOCC2)c1 [Example 14]	100 to 500	100 to 500	< 100	< 100	100 to 500	100 to 500	1000 to 10000	100 to 500	100 to 500	< 100	< 100	< 100		
Cc1ccc(NC(=O)c2cc(C(F)(F)F)cnn2)cc1-c1cc(N[C@H](C)CO)nc(N2CCOCC2)c1 [Example 19]	< 100	< 100	< 100	< 100	< 100	< 100	< 100	< 100	< 100	< 100	< 100	< 100		
Cc1ccc(NC(=O)c2cc(C(F)(F)F)cnn2)cc1-c1cncc(N2CCOCC2)c1 [Example 27]	100 to 500	100 to 500	100 to 500	100 to 500	< 100	< 100	100 to 500	100 to 500	100 to 500	< 100	< 100	100 to 500		
Cc1ccc(NC(=O)c2cc(C(F)(F)F)cnn2)cc1-c1ccnc(N2CCOCC2)n1 [Example 29]	100 to 500	100 to 500	1000 to 10000	1000 to 10000	< 100	< 100	100 to 500	100 to 500	100 to 500	1000 to 10000	1000 to 10000	< 100		
Cc1ccc(NC(=O)c2cc(C(C)(C)F)cnn2)cc1-c1cc(OCCO)nc(N2CCOCC2)c1 [Example 34]	< 100	< 100	< 100	< 100	< 100	< 100	< 100	< 100	< 100	< 100	< 100	100 to 500		
Cc1ccc(NC(=O)c2cc(C3CC3)cnn2)cc1-c1cc(OCCO)nc(N2CCOCC2)c1 [Example 37]	< 100	< 100	< 100	< 100	< 100	< 100	< 100	< 100	< 100	< 100	< 100	< 100		
Cc1ccc(NC(=O)c2cc(C(F)(F)F)cnn2)cc1-c1cc(N2CCOCC2)nc(OCCO)n1 [Example 44]	< 100	< 100	100 to 500	100 to 500	< 100	< 100	< 100	< 100	< 100	100 to 500	100 to 500	100 to 500		
Cc1ccc(NC(=O)c2cc(C3CCC3)cnn2)cc1-c1cc(N[C@H](C)CO)nc(N2CCOCC2)c1 [Example 48]	< 100	< 100	< 100	< 100	< 100	< 100	< 100	500 to 1000	500 to 1000	< 100	< 100	< 100		
Cc1ccc(NC(=O)c2cc(C(F)(F)F)cnn2)cc1-c1nc(N[C@H](C)CO)cc(N2CCOCC2)n1 [Example 49]	100 to 500	100 to 500	1000 to 10000	1000 to 10000	100 to 500	100 to 500	100 to 500	100 to 500	100 to 500	1000 to 10000	1000 to 10000	100 to 500		
Cc1ccc(NC(=O)c2cc(C(F)(F)F)cnn2)cc1-c1ccnc(N2CC3CCC(C2)O3)c1 [Example 83]	< 100	< 100	< 100	< 100	< 100	< 100	< 100	< 100	< 100	< 100	< 100	< 100		
CC(C)(C)c1[nH]cnc1/C=c1\[nH]c(=O)/c(=C/c2ccccc2)[nH]c1=O [plinabulin, reference compound]													5	2700

Reference: patent US20250206729A1, “DUAL RAF AND TUBULIN INHIBITORS AND METHODS OF USE THEREOF” (Deciphera Pharmaceuticals, LLC, priority 2023, published 2025)
